Test results as given in patent publication US12577228B2, “Dihydrocyclopenta-isoquinoline-sulfonamide derivatives compounds” (UCB Biopharma SRL, priority 2019, dated 2026).
Where a name gives a salt, the structure may show the parent alone.

Biological target: T1, IgE-Tb / soluble IgE receptor FcεRIα with a Y131A mutation (Homo sapiens, UniProt P01854, N146Q/N252Q)
T1 construct: fused on or other part: Terbium chelate (LanthaScreen amine-reactive) on IgE-Fc; Alexa Fluor 488 hydrazide on the oxidised glycans of sFcεRIα; Both are labels and no part of the key
T1 sequence (P01854 104-427 N146Q/N252Q): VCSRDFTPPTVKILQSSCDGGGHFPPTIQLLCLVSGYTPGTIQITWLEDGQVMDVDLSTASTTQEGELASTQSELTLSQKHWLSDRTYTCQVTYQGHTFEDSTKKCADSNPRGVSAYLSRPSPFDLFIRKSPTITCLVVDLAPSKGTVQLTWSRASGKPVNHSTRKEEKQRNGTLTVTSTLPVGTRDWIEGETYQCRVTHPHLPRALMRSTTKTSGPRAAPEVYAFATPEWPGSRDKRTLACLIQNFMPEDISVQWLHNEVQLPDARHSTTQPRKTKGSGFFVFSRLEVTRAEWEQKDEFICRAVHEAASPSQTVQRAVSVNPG
T1 sequence (P12319 26-201 Y156A partner): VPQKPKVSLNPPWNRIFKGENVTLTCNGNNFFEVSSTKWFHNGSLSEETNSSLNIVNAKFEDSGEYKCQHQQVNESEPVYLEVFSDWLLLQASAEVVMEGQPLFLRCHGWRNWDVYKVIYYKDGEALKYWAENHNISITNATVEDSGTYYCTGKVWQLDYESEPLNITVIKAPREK
Assay: in vitro FRET assay: binding of IgE-Tb to receptor FcεRIα-Y131A-AF488 and its inhibition by compounds
Settings: 5 nM IgE-Tb, 25 nM FcεRIα-Y131A-AF488, 2 hours at room temperature; read-out: FRET IC50 range

Structure (SMILES)	IC50 [µM]
CC(C)(F)CNS(=O)(=O)c1c2c(cc3cnc(C4CC4)cc13)C[C@@H](Nc1cncnc1OC1CCOCC1)C2 [Example 120, (7R)-3-cyclopropyl-N-(2-fluoro-2-methylpropyl)-7-[[4-(oxan-4-yloxy)pyrimidin-5-yl]amino]-7,8-dihydro-6H-cyclopenta[g]isoquinoline-5-sulfonamide]	0.05 to 0.1
CC(C)(F)CNS(=O)(=O)c1c2c(cc3cnc(C4CC4)cc13)CC(c1nc3c(=O)[nH]ccc3[nH]1)C2 (stereo not shown) [Example 71, 3-cyclopropyl-N-(2-fluoro-2-methylpropyl)-7-(4-oxo-1,5-dihydroimidazo[4,5-c]pyridin-2-yl)-7,8-dihydro-6H-cyclopenta[g]isoquinoline-5-sulfonamide]	0.05 to 0.1
Cc1ncsc1C(=O)N[C@@H]1Cc2cc3cnc(C4CC4)cc3c(S(=O)(=O)NCC(C)(C)F)c2C1 [Example 134, N-[(7R)-3-cyclopropyl-5-[(2-fluoro-2-methylpropyl)sulfamoyl]-7,8-dihydro-6H-cyclopenta[g]isoquinolin-7-yl]-4-methyl-1,3-thiazole-5-carboxamide]	0.1 to 2
Cc1ccc(Oc2cncc(N[C@@H]3Cc4cc5cnc(C6CC6)cc5c(S(=O)(=O)NCC(C)(C)F)c4C3)c2)cn1 [Example 10, (7R)-3-cyclopropyl-N-(2-fluoro-2-methylpropyl)-7-[[5-(6-methylpyridin-3-yl)oxypyridin-3-yl]amino]-7,8-dihydro-6H-cyclopenta[g]isoquinoline-5-sulfonamide]	0.001 to 0.01
CC(C)CNS(=O)(=O)c1c2c(c(N)c3cnc(C4CC4)cc13)CCC2 [Example 21, 9-amino-3-cyclopropyl-N-(2-methylpropyl)-7,8-dihydro-6H-cyclopenta[g]isoquinoline-5-sulfonamide]	0.05 to 0.1
CC(C)(F)CNS(=O)(=O)c1c2c(cc3cnc(C4CC4)cc13)CC(Nc1cncnc1NCC1CC1)C2 (stereo not shown) [Example 19, 3-cyclopropyl-7-[[4-(cyclopropylmethylamino)pyrimidin-5-yl]amino]-N-(2-fluoro-2-methylpropyl)-7,8-dihydro-6H-cyclopenta[g]isoquinoline-5-sulfonamide]	0.01 to 0.05
CC(C)(F)CNS(=O)(=O)c1c2c(cc3cnc(C4CC4)cc13)CN(Cc1cccnc1)C2 [Example 91, 7-cyclopropyl-N-(2-fluoro-2-methyl-propyl)-2-(3-pyridylmethyl)-1,3-dihydropyrrolo[3,4-g]isoquinoline-9-sulfonamide; formic acid]	0.1 to 2
Cn1cc2c(NC3Cc4cc5cnc(C6CC6)cc5c(S(=O)(=O)NCC5(O)COC5)c4C3)cncc2n1 (stereo not shown) [Example 14, 3-cyclopropyl-N-[(3-hydroxyoxetan-3-yl)methyl]-7-[(2-methylpyrazolo[3,4-c]pyridin-4-yl)amino]-7,8-dihydro-6H-cyclopenta[g]isoquinoline-5-sulfonamide]	0.01 to 0.05
CC(C)CNS(=O)(=O)c1c2c(cc3cnc(C4CC4)cc13)CC(NS(C)(=O)=O)C2 (stereo not shown) [Example 55, 3-cyclopropyl-7-(methanesulfonamido)-N-(2-methylpropyl)-7,8-dihydro-6H-cyclopenta[g]isoquinoline-5-sulfonamide]	0.05 to 0.1
CC(C)NC(=O)c1ccc(N[C@@H]2Cc3cc4cnc(C5CC5)cc4c(S(=O)(=O)NCC(C)(C)F)c3C2)cn1 [Example 77, 5-[[(7R)-3-cyclopropyl-5-[(2-fluoro-2-methylpropyl)sulfamoyl]-7,8-dihydro-6H-cyclopenta[g]isoquinolin-7-yl]amino]-N-propan-2-ylpyridine-2-carboxamide]	0.01 to 0.05
O=S(=O)(NC1CC(F)(F)C1)c1c2c(cc3cnc(C4CC4)cc13)CC(Nc1ccc(C3(O)COC3)nc1)C2 (stereo not shown) [Example 74, 3-cyclopropyl-N-(3,3-difluorocyclobutyl)-7-[[6-(3-hydroxyoxetan-3-yl)pyridin-3-yl]amino]-7,8-dihydro-6H-cyclopenta[g]isoquinoline-5-sulfonamide]	0.01 to 0.05
CCOC(=O)c1ncn([C@H]2Cc3cc4cnc(C5CC5)cc4c(S(=O)(=O)NCC(C)(C)F)c3C2)c1N [Example 8, ethyl 5-amino-1-[(7S)-3-cyclopropyl-5-[(2-fluoro-2-methylpropyl)sulfamoyl]-7,8-dihydro-6H-cyclopenta[g]isoquinolin-7-yl]imidazole-4-carboxylate]	0.1 to 2
CC(=O)c1ccc(N[C@@H]2Cc3cc4cnc(C5CC5)cc4c(S(=O)(=O)NCC(C)(C)F)c3C2)cc1 [Example 114, (7R)-7-(4-acetylanilino)-3-cyclopropyl-N-(2-fluoro-2-methylpropyl)-7,8-dihydro-6H-cyclopenta[g]isoquinoline-5-sulfonamide]	0.05 to 0.1
O=c1cc(C2Cc3cc4cnc(C5CC5)cc4c(S(=O)(=O)NC4CC(F)(F)C4)c3C2)[nH]n1-c1cccnc1 (stereo not shown) [Example 111, 3-cyclopropyl-N-(3,3-difluorocyclobutyl)-7-(3-oxo-2-pyridin-3-yl-1H-pyrazol-5-yl)-7,8-dihydro-6H-cyclopenta[g]isoquinoline-5-sulfonamide]	0.1 to 2
Cc1nnc(-c2ncc(N[C@@H]3Cc4cc5cnc(C6CC6)cc5c(S(=O)(=O)NCC(C)(C)F)c4C3)cn2)o1 [Example 129, (7R)-3-cyclopropyl-N-(2-fluoro-2-methylpropyl)-7-[[2-(5-methyl-1,3,4-oxadiazol-2-yl)pyrimidin-5-yl]amino]-7,8-dihydro-6H-cyclopenta[g]isoquinoline-5-sulfonamide]	0.01 to 0.05
CC(C)(F)CNS(=O)(=O)c1c2c(cc3cnc(C4CC4)cc13)CC(CO)(Nc1nncn1-c1cccnc1)C2 (stereo not shown) [Example 50, 3-cyclopropyl-N-(2-fluoro-2-methylpropyl)-7-(hydroxymethyl)-7-[(4-pyridin-3-yl-1,2,4-triazol-3-yl)amino]-6,8-dihydrocyclopenta[g]isoquinoline-5-sulfonamide]	0.1 to 2
CC(C)(C)CNC(=O)C1Cc2cc3nnc(C4CC4)cc3c(S(=O)(=O)NCC(C)(C)F)c2C1 (stereo not shown) [Example 113, 3-cyclopropyl-N-(2,2-dimethylpropyl)-5-[(2-fluoro-2-methylpropyl)sulfamoyl]-7,8-dihydro-6H-cyclopenta[g]cinnoline-7-carboxamide]	0.1 to 2
Cc1ccc(S(=O)(=O)c2cncc(N[C@@H]3Cc4cc5cnc(C6CC6)cc5c(S(=O)(=O)NCC(C)(C)F)c4C3)c2)cn1 [Example 43, (7R)-3-cyclopropyl-N-(2-fluoro-2-methylpropyl)-7-[[5-(6-methylpyridin-3-yl)sulfonylpyridin-3-yl]amino]-7,8-dihydro-6H-cyclopenta[g]isoquinoline-5-sulfonamide]	0.01 to 0.05
CC(C)CNS(=O)(=O)c1c2c(cc3cnc(C4CC4)cc13)CC(Nc1ccnnc1)C2 (stereo not shown) [Example 103, 3-cyclopropyl-N-isobutyl-7-(pyridazin-4-ylamino)-7,8-dihydro-6H-cyclopenta[g]isoquinoline-5-sulfonamide; formic acid]	0.01 to 0.05
CC(C)(F)CNS(=O)(=O)c1c2c(cc3cnc(C4CC4)cc13)C[C@@H](Nc1ccc(CO)nc1)C2 [Example 12, (7R)-3-cyclopropyl-N-(2-fluoro-2-methylpropyl)-7-[[6-(hydroxymethyl)pyridin-3-yl]amino]-7,8-dihydro-6H-cyclopenta[g]isoquinoline-5-sulfonamide]	0.01 to 0.05
CCNC(=O)NC1CCc2c1cc1cnc(C3CC3)cc1c2S(=O)(=O)NCC(C)C (stereo not shown) [Example 45, 1-[3-cyclopropyl-5-(2-methylpropylsulfamoyl)-7,8-dihydro-6H-cyclopenta[g]isoquinolin-8-yl]-3-ethylurea]	0.1 to 2
CC(C)(C)OC(=O)c1ccc(N[C@@H]2Cc3cc4cnc(C5CC5)cc4c(S(=O)(=O)NC4CC(F)(F)C4)c3C2)cn1 [Example 85, tert-butyl 5-[[(7R)-3-cyclopropyl-5-[(3,3-difluorocyclobutyl)sulfamoyl]-7,8-dihydro-6H-cyclopenta[g]isoquinolin-7-yl]amino]pyridine-2-carboxylate]	0.01 to 0.05
CC(C)(F)CNS(=O)(=O)c1c2c(cc3cnc(C4CC4)cc13)CN(C(=O)Cc1cccnc1)C2 [Example 72, 7-cyclopropyl-N-(2-fluoro-2-methylpropyl)-2-(2-pyridin-3-ylacetyl)-1,3-dihydropyrrolo[3,4-g]isoquinoline-9-sulfonamide]	0.1 to 2
CC(C)CNS(=O)(=O)c1c2c(cc3cnc(C4CC4)cc13)CC(Nc1ccc(C(=O)O)nc1)C2 (stereo not shown) [Example 88, 5-[[3-cyclopropyl-5-(isobutylsulfamoyl)-7,8-dihydro-6H-cyclopenta[g]isoquinolin-7-yl]amino]pyridine-2-carboxylic acid; hydrochloride]	0.05 to 0.1
CCNc1c(NC2Cc3cc4cnc(C5CC5)cc4c(S(=O)(=O)NCC(C)C)c3C2)c(=O)c1=O (stereo not shown) [Example 53, 3-cyclopropyl-7-[[2-(ethylamino)-3,4-dioxocyclobuten-1-yl]amino]-N-(2-methylpropyl)-7,8-dihydro-6H-cyclopenta[g]isoquinoline-5-sulfonamide]	0.01 to 0.05
CC(C)(F)CNS(=O)(=O)c1c2c(cc3c(F)nc(C4CC4)cc13)CC(Nc1ccc(C(N)=O)nc1)C2 (stereo not shown) [Example 23, 5-[[3-cyclopropyl-1-fluoro-5-[(2-fluoro-2-methyl-propyl)sulfamoyl]-7,8-dihydro-6H-cyclopenta[g]isoquinolin-7-yl]amino]pyridine-2-carboxamide]	0.01 to 0.05
CC(C)(F)CNS(=O)(=O)c1c2c(cc3cnc(C4CC4)cc13)CC(NC1=CC(=O)C1(C)C)C2 (stereo not shown) [Example 98, 3-cyclopropyl-7-[(4,4-dimethyl-3-oxocyclobuten-1-yl)amino]-N-(2-fluoro-2-methylpropyl)-7,8-dihydro-6H-cyclopenta[g]isoquinoline-5-sulfonamide]	0.1 to 2
Cn1cc(C(=O)C(=O)N[C@@H]2Cc3cc4cnc(C5CC5)cc4c(S(=O)(=O)NCC(C)(C)F)c3C2)cn1 [Example 137, N-[(7R)-3-cyclopropyl-5-[(2-fluoro-2-methylpropyl)sulfamoyl]-7,8-dihydro-6H-cyclopenta[g]isoquinolin-7-yl]-2-(1-methylpyrazol-4-yl)-2-oxoacetamide]	0.1 to 2
